Test results as given in article PMC8301926 (Biomolecules, 2021).
Several values for one entry are separate records, joined by “and”; a condition that tells them apart may be missing. Equal values may be shown once.

Columns and labels:
[1] = target: T1, recombinant human monoamine oxidase A (hMAO-A) (Homo sapiens, UniProt P21397); assay: hMAO-A inhibition, MAO-Glo chemiluminescent assay; assay type: biochemical
T1 sequence (P21397 1-527): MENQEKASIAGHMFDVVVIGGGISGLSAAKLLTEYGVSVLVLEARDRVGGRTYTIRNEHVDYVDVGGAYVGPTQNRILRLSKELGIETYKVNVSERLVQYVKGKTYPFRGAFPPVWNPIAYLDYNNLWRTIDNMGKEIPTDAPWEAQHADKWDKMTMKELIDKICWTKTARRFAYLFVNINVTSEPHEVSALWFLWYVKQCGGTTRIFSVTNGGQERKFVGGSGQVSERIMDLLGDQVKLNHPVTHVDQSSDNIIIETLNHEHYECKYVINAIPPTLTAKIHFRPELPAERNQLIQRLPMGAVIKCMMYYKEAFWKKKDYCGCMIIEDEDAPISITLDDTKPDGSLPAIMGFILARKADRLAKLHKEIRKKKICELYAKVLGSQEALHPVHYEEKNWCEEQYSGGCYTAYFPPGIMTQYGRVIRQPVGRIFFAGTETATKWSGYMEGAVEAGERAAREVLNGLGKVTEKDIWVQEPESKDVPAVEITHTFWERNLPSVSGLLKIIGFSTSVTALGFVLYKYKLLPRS

[2] = target: T2, recombinant human monoamine oxidase B (hMAO-B) (Homo sapiens, UniProt P27338); assay: hMAO-B inhibition, MAO-Glo chemiluminescent assay; assay type: biochemical; conditions: mean ± SD of triplicate experiments
T2 sequence (P27338 1-520): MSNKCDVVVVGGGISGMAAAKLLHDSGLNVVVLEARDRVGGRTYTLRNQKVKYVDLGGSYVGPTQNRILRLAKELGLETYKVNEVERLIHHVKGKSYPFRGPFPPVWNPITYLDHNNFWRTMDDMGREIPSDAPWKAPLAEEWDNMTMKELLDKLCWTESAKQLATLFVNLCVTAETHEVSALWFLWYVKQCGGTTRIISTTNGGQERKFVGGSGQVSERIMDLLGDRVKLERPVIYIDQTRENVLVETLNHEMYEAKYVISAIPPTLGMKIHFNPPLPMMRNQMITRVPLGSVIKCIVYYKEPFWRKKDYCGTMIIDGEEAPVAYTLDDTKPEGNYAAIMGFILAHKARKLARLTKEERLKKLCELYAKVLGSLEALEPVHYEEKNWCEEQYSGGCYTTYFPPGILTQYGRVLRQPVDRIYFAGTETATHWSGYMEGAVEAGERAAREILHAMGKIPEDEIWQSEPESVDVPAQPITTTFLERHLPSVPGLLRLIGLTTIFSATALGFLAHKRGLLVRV

[3] = target: T3, human M1 muscarinic acetylcholine receptor (hM1R) (Homo sapiens, UniProt P11229); assay: M1 (h) functional GPCR assay, antagonist effect, intracellular Ca2+; assay type: cell-based; conditions: CHO
T3 construct: host or cells: CHO cells
T3 sequence (P11229 whole entry): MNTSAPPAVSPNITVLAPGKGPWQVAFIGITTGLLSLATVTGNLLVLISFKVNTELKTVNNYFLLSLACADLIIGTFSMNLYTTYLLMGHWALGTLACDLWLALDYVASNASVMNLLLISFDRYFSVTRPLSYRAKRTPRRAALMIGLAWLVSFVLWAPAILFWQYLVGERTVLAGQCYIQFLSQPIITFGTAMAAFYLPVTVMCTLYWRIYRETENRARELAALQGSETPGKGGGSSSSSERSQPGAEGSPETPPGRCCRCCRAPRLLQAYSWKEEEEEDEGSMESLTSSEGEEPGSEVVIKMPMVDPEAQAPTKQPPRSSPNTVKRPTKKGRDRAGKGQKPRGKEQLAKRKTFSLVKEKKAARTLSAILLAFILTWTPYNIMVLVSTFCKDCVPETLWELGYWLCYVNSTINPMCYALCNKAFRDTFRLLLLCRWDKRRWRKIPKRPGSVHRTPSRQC

[4] = target: T4, human M5 muscarinic acetylcholine receptor (hM5R) (Homo sapiens, UniProt P08912); assay: M5 (h) functional GPCR assay, antagonist effect, intracellular Ca2+; assay type: cell-based; conditions: RBL
T4 construct: host or cells: RBL (rat basophilic leukemic) cells
T4 sequence (P08912 1-532): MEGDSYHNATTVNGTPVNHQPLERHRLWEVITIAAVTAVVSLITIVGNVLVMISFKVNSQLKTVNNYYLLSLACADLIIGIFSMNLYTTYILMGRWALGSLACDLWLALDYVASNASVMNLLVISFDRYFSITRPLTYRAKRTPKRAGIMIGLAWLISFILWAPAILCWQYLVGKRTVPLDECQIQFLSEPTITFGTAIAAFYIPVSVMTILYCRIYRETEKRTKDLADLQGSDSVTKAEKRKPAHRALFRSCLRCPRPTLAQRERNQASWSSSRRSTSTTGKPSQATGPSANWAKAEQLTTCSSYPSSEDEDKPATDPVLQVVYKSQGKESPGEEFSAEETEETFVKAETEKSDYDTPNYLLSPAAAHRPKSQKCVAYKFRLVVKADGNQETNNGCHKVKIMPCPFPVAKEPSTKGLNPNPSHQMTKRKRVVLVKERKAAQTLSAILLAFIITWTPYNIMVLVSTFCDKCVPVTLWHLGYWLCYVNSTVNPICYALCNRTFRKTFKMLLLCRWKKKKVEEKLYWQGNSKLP

[5] = design: method as in PMID 31943245; conditions: rats, cited from earlier work

## Cc1coc2c1C(=O)C(=O)c1c-2ccc2c(C)cccc12 [Tanshinone I]
[1]; IC50, hMAO-A, mean ± SD of triplicate experiments
  IC50: < 10000 nM and 2620 nM
[1]; ratio of the IC50 value for hMAO-A inhibition to that for hMAO-B inhibition
  SI (selectivity index): 0.11
[2]
  IC50: 24.9 ± 3.82 µM
[3]
  inhibition at 100 µM: 13.8 ± 1.98%
[4]
  inhibition at 100 µM: -0.5 ± 0.42%
[5]; after oral administration
  tissue distribution: distribution of 1 into the brain
[5]; oral administration, among tanshinones 1, 2, 3, and Dtan I
  half-life: most extended half-life
